From paper doi:10.1101/2025.11.06.686927v1 (biorxiv, 2025)

Tests used:
PIM1 = PIM1 (Homo sapiens, UniProt P11309); test: biochemical; conditions: read-out: % of control remaining
HCT116 = test: cells; design: species or system RPE-1, SH-SY5Y, U2OS; conditions: Homo sapiens, HCT-116, 48 h, read-out: HCT116 EC50
CDK5/P25 = CDK5/P25 (Homo sapiens, UniProt Q00535); test: biochemical; conditions: read-out: % of control remaining
DYRK1A (RnDYRK1A-kd) [1] = molecular target: T1, DYRK1A (RnDYRK1A-kd) (Rattus norvegicus, UniProt Q63470); test: radiometric […]-ATP kinase assay, peptide KKISGRLSPIMTEQ; type: biochemical; conditions: read-out: % residual activity at 10 μM
CLK1 (MmCLK1) [2] = molecular target: T2, CLK1 (MmCLK1) (Mus musculus, UniProt P22518); test: radiometric […]-ATP kinase assay, peptide GRSRSRSRSRSR; type: biochemical; conditions: read-out: % residual activity at 10 μM
T2 sequence (P22518 whole entry): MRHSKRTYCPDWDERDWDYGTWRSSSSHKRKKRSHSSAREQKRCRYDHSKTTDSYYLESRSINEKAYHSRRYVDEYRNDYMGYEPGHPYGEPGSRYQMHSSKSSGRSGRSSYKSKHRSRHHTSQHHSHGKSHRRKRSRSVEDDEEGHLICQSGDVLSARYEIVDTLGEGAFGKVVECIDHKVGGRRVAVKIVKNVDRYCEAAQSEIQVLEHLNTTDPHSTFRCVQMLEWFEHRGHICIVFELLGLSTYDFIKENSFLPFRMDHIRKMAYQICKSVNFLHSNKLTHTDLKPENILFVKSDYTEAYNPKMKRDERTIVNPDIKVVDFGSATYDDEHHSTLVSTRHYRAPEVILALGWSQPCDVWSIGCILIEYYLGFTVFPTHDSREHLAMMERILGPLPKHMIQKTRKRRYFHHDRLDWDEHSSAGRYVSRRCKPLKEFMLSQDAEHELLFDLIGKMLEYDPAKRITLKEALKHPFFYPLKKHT

[3] = molecular target: T3, CDK8-cyclin C (HsCDK8/Cyclin C) (Homo sapiens, UniProt P49336); test: biochemical; conditions: read-out: % of control remaining
T3 sequence (P49336 whole entry): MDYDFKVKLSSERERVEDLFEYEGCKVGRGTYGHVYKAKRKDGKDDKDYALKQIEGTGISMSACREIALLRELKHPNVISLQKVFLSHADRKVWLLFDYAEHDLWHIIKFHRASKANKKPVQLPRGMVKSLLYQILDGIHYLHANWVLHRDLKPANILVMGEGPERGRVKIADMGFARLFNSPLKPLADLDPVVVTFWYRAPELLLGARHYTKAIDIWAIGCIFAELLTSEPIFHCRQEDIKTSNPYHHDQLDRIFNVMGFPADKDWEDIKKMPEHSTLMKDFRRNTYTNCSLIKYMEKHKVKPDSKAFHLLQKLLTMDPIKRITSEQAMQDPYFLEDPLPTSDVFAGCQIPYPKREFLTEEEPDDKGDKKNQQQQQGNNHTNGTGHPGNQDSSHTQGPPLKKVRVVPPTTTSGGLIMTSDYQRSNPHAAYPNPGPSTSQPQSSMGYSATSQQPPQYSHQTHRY
T3 sequence (P24863 whole entry partner): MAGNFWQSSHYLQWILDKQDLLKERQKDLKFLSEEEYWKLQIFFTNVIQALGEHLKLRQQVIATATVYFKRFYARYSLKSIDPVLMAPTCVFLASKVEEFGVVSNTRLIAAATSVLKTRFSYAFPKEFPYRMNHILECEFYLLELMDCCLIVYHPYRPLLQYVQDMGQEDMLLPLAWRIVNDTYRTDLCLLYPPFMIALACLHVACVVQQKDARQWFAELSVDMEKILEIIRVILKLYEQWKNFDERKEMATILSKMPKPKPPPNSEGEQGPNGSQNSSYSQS

[4] = molecular target: T3, CDK8-cyclin C (HsCDK8/Cyclin C); test: radiometric […]-ATP kinase assay, RBER-IRStide substrate; type: biochemical
CDK2/cyclin A = CDK2/cyclin A (Homo sapiens, UniProt P24941); test: biochemical; conditions: read-out: % of control remaining
SH-SY5Y = test: cells; design: species or system RPE-1, HCT116, U2OS; conditions: Homo sapiens, 48 h, read-out: SHSY-5Y EC50
in vitro = test: in vitro; design: species or system HCT116, SH-SY5Y, U2OS; conditions: human, rpe-1 cells
U2OS = test: cells; design: species or system RPE-1, HCT116, SH-SY5Y; conditions: Homo sapiens, 48 h, read-out: U2OS EC50
DYRK1A (RnDYRK1A-kd) [5] = molecular target: T1, DYRK1A (RnDYRK1A-kd); test: biochemical; conditions: read-out: % of control remaining
HASPIN = molecular target: T4, HASPIN (Homo sapiens, UniProt Q8TF76); test: biochemical; conditions: read-out: % of control remaining
T4 sequence (Q8TF76 1-798): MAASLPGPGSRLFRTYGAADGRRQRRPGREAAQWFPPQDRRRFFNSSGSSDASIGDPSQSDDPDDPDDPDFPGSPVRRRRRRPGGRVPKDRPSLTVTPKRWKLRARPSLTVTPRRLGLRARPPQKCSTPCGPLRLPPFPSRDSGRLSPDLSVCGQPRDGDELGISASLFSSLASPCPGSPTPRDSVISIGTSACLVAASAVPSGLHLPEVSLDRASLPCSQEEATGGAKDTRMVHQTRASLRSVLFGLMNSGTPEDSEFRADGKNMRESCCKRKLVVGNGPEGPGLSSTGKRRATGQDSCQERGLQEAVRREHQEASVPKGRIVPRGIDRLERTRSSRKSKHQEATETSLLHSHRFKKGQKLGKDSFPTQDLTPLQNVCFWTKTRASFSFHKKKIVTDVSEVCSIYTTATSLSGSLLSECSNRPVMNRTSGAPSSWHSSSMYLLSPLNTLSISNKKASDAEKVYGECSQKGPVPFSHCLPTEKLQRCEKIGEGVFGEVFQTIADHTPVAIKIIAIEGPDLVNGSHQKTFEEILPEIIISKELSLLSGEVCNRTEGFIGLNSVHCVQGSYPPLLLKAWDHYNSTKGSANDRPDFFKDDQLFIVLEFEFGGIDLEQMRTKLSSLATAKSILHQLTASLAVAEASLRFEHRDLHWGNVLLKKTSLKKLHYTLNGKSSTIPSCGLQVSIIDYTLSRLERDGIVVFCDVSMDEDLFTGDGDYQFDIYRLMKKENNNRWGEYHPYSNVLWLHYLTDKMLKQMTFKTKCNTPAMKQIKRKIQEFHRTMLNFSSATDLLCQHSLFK

CLK1 (MmCLK1) [6] = molecular target: T2, CLK1 (MmCLK1); test: biochemical; conditions: read-out: % of control remaining

PIM1, sequence (P11309 whole entry): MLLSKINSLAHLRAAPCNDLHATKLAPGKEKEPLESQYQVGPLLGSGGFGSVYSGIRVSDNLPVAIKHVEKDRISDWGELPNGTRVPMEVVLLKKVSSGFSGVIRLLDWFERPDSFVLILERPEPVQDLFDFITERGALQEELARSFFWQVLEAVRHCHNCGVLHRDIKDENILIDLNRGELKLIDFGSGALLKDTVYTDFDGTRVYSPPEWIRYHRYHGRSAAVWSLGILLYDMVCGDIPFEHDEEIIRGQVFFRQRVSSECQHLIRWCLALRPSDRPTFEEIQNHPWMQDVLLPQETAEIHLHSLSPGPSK
CDK5/P25, sequence (Q00535 whole entry): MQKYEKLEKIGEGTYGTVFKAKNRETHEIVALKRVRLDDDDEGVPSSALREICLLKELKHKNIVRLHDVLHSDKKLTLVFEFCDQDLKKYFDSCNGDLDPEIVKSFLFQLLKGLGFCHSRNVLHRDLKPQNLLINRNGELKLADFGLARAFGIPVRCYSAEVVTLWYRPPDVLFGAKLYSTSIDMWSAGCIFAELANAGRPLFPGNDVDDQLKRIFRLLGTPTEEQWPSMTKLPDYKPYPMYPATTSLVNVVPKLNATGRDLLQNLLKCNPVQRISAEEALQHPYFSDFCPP
CDK5/P25, sequence (Q15078 whole entry partner): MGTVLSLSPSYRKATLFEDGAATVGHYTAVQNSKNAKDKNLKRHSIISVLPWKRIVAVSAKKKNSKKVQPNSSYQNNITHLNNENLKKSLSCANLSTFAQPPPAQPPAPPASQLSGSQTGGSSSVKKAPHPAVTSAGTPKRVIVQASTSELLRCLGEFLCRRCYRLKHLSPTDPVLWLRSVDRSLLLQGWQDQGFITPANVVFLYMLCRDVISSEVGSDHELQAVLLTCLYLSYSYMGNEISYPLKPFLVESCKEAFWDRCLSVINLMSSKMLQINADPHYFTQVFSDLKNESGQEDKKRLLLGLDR

| Compound | remaining activity at 10 µM (PIM1) [%] | EC50 (HCT116) [µM] | remaining activity at 10 µM (CDK5/P25) [%] | remaining activity at 10 µM (DYRK1A (RnDYRK1A-kd) [1]) [%] | remaining activity at 10 µM (CLK1 (MmCLK1) [2]) [%] | remaining activity at 10 µM [3] [%] | IC50 [4] [µM] | remaining activity at 10 µM (CDK2/cyclin A) [%] | EC50 (SH-SY5Y) [µM] | EC50 (U2OS) [µM] | remaining activity at 10 µM (DYRK1A (RnDYRK1A-kd) [5]) [%] | remaining activity at 10 µM (HASPIN) [%] | remaining activity at 10 µM (CLK1 (MmCLK1) [6]) [%] | CC50 at 48 h (in vitro) [µM] |
| --- | --- | --- | --- | --- | --- | --- | --- | --- | --- | --- | --- | --- | --- | --- |
| N#Cc1ccc2ncnc(NCCc3ccccc3)c2c1 [Senexin A] | 78 | > 50 | 57 | -7 | 34 | 15 | 0.03 | 62 | > 50 | 48 | – | – | – | 41 |
| O=C(CSc1ccc(-c2cccnc2)nn1)Nc1cccc(C(F)(F)F)c1 [compound 9, #9] | 71 | > 50 | 107 | – | – | 10 | 0.04 | 78 | > 50 | > 50 | 80 | 94 | 111 | > 50 |
| O=C(Nc1ccc(Cc2ccncc2)cc1)Nc1cccc2ccccc12 [compound 22, #22] | 85 | 29 | 115 | – | – | 10 | 0.16 | 76 | 41 | 14 | 83 | 96 | 151 | 10 |
| Cc1cccc(OCC(=O)Nc2ccc3oc(-c4cccnc4)nc3c2)c1C [compound 45, #45] | 127 | 19 | 115 | – | – | 6 | 0.03 | 82 | 8 | 9 | 73 | 144 | 143 | 43 |
| O=C(NC[C@@H]1Cc2cc(-c3cncnc3)ccc2O1)c1scc2c1CCCC2 [compound 47, #47] | 89 | > 50 | 107 | – | – | 5 | 0.2 | 81 | > 50 | > 50 | 75 | 118 | 109 | > 50 |

The next lines start with results.

| remaining activity at 10 µM (PIM1) [%] | EC50 (HCT116) [µM] | remaining activity at 10 µM (CDK5/P25) [%] | remaining activity at 10 µM (DYRK1A (RnDYRK1A-kd) [1]) [%] | remaining activity at 10 µM (CLK1 (MmCLK1) [2]) [%] | remaining activity at 10 µM [3] [%] | IC50 [4] [µM] | remaining activity at 10 µM (CDK2/cyclin A) [%] | EC50 (SH-SY5Y) [µM] | EC50 (U2OS) [µM] | remaining activity at 10 µM (DYRK1A (RnDYRK1A-kd) [5]) [%] | remaining activity at 10 µM (HASPIN) [%] | remaining activity at 10 µM (CLK1 (MmCLK1) [6]) [%] | Compound | CC50 at 48 h (in vitro) [µM] |
| --- | --- | --- | --- | --- | --- | --- | --- | --- | --- | --- | --- | --- | --- | --- |
| 95 | > 50 | 101 | – | – | 8 | 0.05 | 106 | > 50 | > 50 | 89 | 123 | 99 | O=C(NC[C@H]1CC(=O)N(c2ccc3c(c2)OCO3)C1)Nc1cccc(C(F)(F)F)c1 [compound 75, #75] | > 50 |
| 109 | > 50 | 89 | – | 37 | 11 | 0.1 | 73 | > 50 | > 50 | 80 | 116 | – | O=C(Nc1ccc2oc(-c3cccnc3)nc2c1)c1ncoc1-c1ccccc1Cl [compound 76, #76] | > 50 |
| 89 | 31 | 109 | – | – | 19 | 0.005 | 120 | 24 | 10 | 134 | 111 | 81 | Cc1ccc(NC(=O)Nc2ccc(Cc3ccncc3)cc2)cc1C [compound 82, #82] | > 50 |
